Reference: US8802597B2, “Herbicidal pyrimidines” (E I du Pont de Nemours and Company, priority 2003, dated 2014)

Legend:
Assay in all cases: Test E flooded paddy water application
Format in all cases: in vivo
[1] = system: late watergrass (Echinochloa oryzicola); conditions: Flood, 21 days, scale 0 to 100 (0 no effect, 100 complete control); for Plant response rating, Watergrass, Late: 16 g ai/ha
Procedure, shortened: (§1)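 Response scored visually on a 0–100 scale (100 = complete control) at 21 days against untreated pots. Treatment was into paddy water 3 cm deep over silt loam, with plants at the 2.0–2.5-leaf stage, grown under 16-h light at 29.5/26.7 °C day/night.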

[2] = system: barnyardgrass (Echinochloa crus-galli); conditions: Flood, 21 days, scale 0 to 100 (0 no effect, 100 complete control); for Plant response rating, Barnyardgrass: 16 g ai/ha
Procedure, shortened: as §1

[3] = system: bearded (brdd.) sprangletop (Leptochloa fusca ssp. fascicularis); conditions: Flood, 21 days, scale 0 to 100 (0 no effect, 100 complete control)
Procedure, shortened: as §1

[4] = system: rice flatsedge (Cyperus iria); conditions: Flood, 21 days, scale 0 to 100 (0 no effect, 100 complete control)
Procedure, shortened: as §1

[5] = system: junglerice (Echinochloa colona); conditions: Flood, 21 days, scale 0 to 100 (0 no effect, 100 complete control); for Plant response rating, Junglerice: 16 g ai/ha
Procedure, shortened: as §1

[6] = system: smallflower umbrella sedge (Cyperus difformis); conditions: Flood, 21 days, scale 0 to 100 (0 no effect, 100 complete control); for Plant response rating, Sedge, Umbrella: 16 g ai/ha
Procedure, shortened: as §1

Row | Structure (SMILES) | Watergrass, Late plant response rating ([1]; 32 g ai/ha) | Watergrass, Late plant response rating ([1]; 64 g ai/ha) | Watergrass, Late plant response rating ([1]; 125 g ai/ha) | Watergrass, Late plant response rating ([1]; 250 g ai/ha) | Barnyardgrass plant response rating ([2]; 32 g ai/ha) | Barnyardgrass plant response rating ([2]; 64 g ai/ha) | Barnyardgrass plant response rating ([2]; 125 g ai/ha) | Barnyardgrass plant response rating ([2]; 250 g ai/ha) | Sprangletop, Brdd. plant response rating ([3]; 32 g ai/ha) | Sprangletop, Brdd. plant response rating ([3]; 64 g ai/ha) | Sprangletop, Brdd. plant response rating ([3]; 125 g ai/ha) | Sprangletop, Brdd. plant response rating ([3]; 250 g ai/ha) | Junglerice plant response rating ([5]; 32 g ai/ha) | Junglerice plant response rating ([5]; 64 g ai/ha) | Junglerice plant response rating ([5]; 125 g ai/ha) | Junglerice plant response rating ([5]; 250 g ai/ha) | Sedge, Umbrella plant response rating ([6]; 32 g ai/ha) | Sedge, Umbrella plant response rating ([6]; 64 g ai/ha) | Sedge, Umbrella plant response rating ([6]; 125 g ai/ha) | Sedge, Umbrella plant response rating ([6]; 250 g ai/ha) | further results
1 | Nc1nc(-c2ccc(Cl)cc2)nc(C(=O)[O-])c1Cl.[Na+] [Compound 117] | 0 | 0 | 0 | 0 | 0 | 0 | 0 | 0 | 0 | 0 | 0 | 0 | 0 | 0 | 0 | 0 | 85 | 100 | 100 | 100 | Plant response rating, Watergrass, Late [1]: 0; Plant response rating, Barnyardgrass [2]: 0; Plant response rating, Sprangletop, Brdd. ([3]; 16 g ai/ha): 0; Flatsedge, Rice plant response rating ([4]; 32 g ai/ha): 100; Flatsedge, Rice plant response rating ([4]; 64 g ai/ha): 100; Flatsedge, Rice plant response rating ([4]; 125 g ai/ha): 100; Flatsedge, Rice plant response rating ([4]; 250 g ai/ha): 100; Plant response rating, Flatsedge, Rice ([4]; 16 g ai/ha): 100; Plant response rating, Junglerice [5]: 0; Plant response rating, Sedge, Umbrella [6]: 60
2 | Cc1ccc(-c2nc(N)c(Cl)c(C(=O)O)n2)cc1 [Compound 91] | 0 | 0 | 0 | 0 | 0 | 10 | 10 | 10 | 0 | 0 | 30 | 30 | 0 | 0 | 0 | 70 | 0 | 30 | 100 | 100 | Plant response rating, Watergrass, Late [1]: 0; Plant response rating, Barnyardgrass [2]: 0; Plant response rating, Junglerice [5]: 0; Plant response rating, Sedge, Umbrella [6]: 0
3 | COC(=O)c1nc(-c2ccc(C(F)(F)F)cc2)nc(N)c1Cl [Compound 44] | 0 | 0 | 0 | 0 | 0 | 0 | 0 | 0 | 20 | 30 | 30 | 50 | 0 | 0 | 0 | 20 | 20 | 90 | 90 | 100 | Watergrass, Late plant response rating ([1]; 500 g ai/ha): 20; Barnyardgrass plant response rating ([2]; 500 g ai/ha): 10; Sprangletop, Brdd. plant response rating ([3]; 500 g ai/ha): 95; Junglerice plant response rating ([5]; 500 g ai/ha): 20; Sedge, Umbrella plant response rating ([6]; 500 g ai/ha): 100
